Where two headings read alike, the source gives them in different places.
Tests used:
Type in all cases: binding
[1] = molecular target: T1, DAPK catalytic domain (DAPKwt) (Homo sapiens, UniProt P53355); assay: Fluorescence polarization titration of fluorophore labeled ATP with DAPKwt; conditions: pH 8.8, labeled ATP 0.1 µM
T1 construct: encoding the DAPK catalytic domain (DAPKwt, open reading frame residues 1–285); Strep-tag (pASK-IBA3 vector; purified on streptactin resin) (C); made in house; host or cells: Escherichia coli DH5α
T1 sequence (P53355 1-285): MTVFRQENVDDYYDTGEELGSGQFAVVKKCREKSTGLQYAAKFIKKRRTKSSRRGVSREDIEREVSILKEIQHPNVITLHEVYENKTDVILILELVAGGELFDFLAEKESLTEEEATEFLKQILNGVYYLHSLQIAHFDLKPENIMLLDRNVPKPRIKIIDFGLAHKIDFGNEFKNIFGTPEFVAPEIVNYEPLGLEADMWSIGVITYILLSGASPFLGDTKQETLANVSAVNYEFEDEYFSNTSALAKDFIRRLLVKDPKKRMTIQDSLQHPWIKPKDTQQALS
Method: (§1) Titrations followed the same protocol as described under “ATP, ADP and substrate peptide titrations”, but under buffer conditions analogous to the ones listed under “nano-ESI-MS for the study of non-covalent complexes”. For investigations of the monomeric and the dimeric forms, NH4Ac concentrations were kept constant at 250 mM and 5 mM, respectively. To induce gradual monomerization of DAPK catalytic core, the NH4Ac concentration was stepwise augmented (5, 10, 25, 50, 100 and 250 mM) by the addition of a concentrated NH4Ac stock solution (1 M).
To determine the Kd values of γ-[6-Aminohexyl]-ATP-Atto495 (Jena Bioscience, Jena, Germany) its concentration was set to 0.1 µM, while the rest of the conditions were kept identical to the ones described above. Fluorescence polarization was recorded at an excitation and emission wavelength of 493 nm and 520 nm respectively.

[2] = molecular target: T2, mutant protein DAPKdel (ΔS52–S57) (Homo sapiens, UniProt P53355, DEL52-57); assay: Fluorescence polarization titration of the fluorescent probe with DAPKdel
T2 construct: encoding the DAPK catalytic domain (DAPKwt, open reading frame residues 1–285) or the mutant protein DAPKdel (ΔS52–S57); Strep-tag (pASK-IBA3 vector; purified on streptactin resin) (C); made in house; host or cells: Escherichia coli DH5α
T2 sequence (P53355 with tags, fused parts or gaps DEL52-57): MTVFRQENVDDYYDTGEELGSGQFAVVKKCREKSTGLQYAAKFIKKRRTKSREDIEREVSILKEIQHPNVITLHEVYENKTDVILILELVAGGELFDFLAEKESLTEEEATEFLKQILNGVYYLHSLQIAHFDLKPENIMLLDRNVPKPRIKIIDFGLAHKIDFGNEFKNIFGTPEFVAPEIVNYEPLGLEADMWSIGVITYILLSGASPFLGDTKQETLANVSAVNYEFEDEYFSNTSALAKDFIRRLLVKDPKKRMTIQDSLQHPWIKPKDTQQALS
Method: (§2) Fluorescence polarization assays were performed using a Victor 3 apparatus (Perkin-Elmer Waltham, MA). The Lissamine Rhodamine B peptides based library (UMR 7200 CNRS, Strasbourg, France, Patent WO/2006/003330 [14]) was diluted in the assay buffer (50 mM HEPES, 150 mM KCl, 1 mM MgCl2, pH 7.5) to a working concentration of 0.2 µM. 15 µl of these dilutions were transferred to each well of the assay plate (Corning Costar 96-well black polystyrene plates, Model 3686, Corning, Acton, MA). All pipetting in HTS was performed on a Biomek® 2000 (Beckman Coulter, Fullerton, CA). Fluorescent polarization degrees (mFP) were measured at an excitation and emission wavelength of 530 and 610 nm, respectively. 15 µl of the assay buffer with DAPK, at a concentration of 4 µM, were added to each well. For each plate, background correction was performed with blank control wells containing no compounds.
(§3) All titration measurements were performed on a FlexStation 3 (Molecular Devices Union City, CA). The other experimental conditions were described in section “HTS of fluorescent peptides based library”. A twofold dilution cascade of the protein between 200 µM and 0.8 µM was prepared and 10 µl of these solutions were dispatched in 96-well assay plates. 10 µl of the probe solution (0.2 µM of CHPO 187-3-H11-para in assay buffer) were added to the wells and fluorescent polarization was recorded as specified before. Subsequently, 1 µl of concentrated ATP, ADP or substrate peptide (Tocris Bristol, UK) in assay buffer with 0.1 µM of the fluorescent probe was added to the wells, in order to subsequently obtain the following final concentrations of ATP, ADP or substrate peptide: 0.4, 0.8, 1.6, 3.2, 6.3, 12.5, 25, 50, and 1000 µM (the highest concentration was not performed for the peptide).
as §1

[3] = molecular target: T3, DAPK catalytic domain (DAPKwt, residues 1–285) (Homo sapiens, UniProt P53355); assay: Fluorescence polarization titration of the fluorescent probe with DAPKwt
T3 construct: encoding the DAPK catalytic domain (DAPKwt, open reading frame residues 1–285); Strep-tag (pASK-IBA3 vector; purified on streptactin resin) (C); made in house; host or cells: Escherichia coli DH5α
T3 sequence (P53355 1-285): as the sequence (P53355 1-285) above
Method: as §2, §3, §1

Kd ([1]; 5 mM NH4Ac, read-out: Kd of the labeled ATP for the DAPKwt dimer) [µM] | Kd ([1]; 250 mM NH4Ac, read-out: Kd of the labeled ATP for the DAPKwt monomer) [µM] | Kd ([2]; 5 mM NH4Ac, pH 8.8) [µM] | Kd ([2]; 250 mM NH4Ac, pH 8.8) [µM] | Kd ([2]; HEPES buffer pH 7.5, absence of ATP or ADP) [µM] | Kd ([2]; HEPES buffer pH 7.5, presence of ADP, ratio to DAPKdel higher than two) [µM] | Kd ([2]; HEPES buffer pH 7.5, presence of ATP, ratio to DAPKdel higher than two) [µM] | Kd ([3]; 5 mM NH4Ac, pH 8.8, conditions favoring the dimer, probe 0.1 µM) [µM] | Kd ([3]; 50 mM HEPES, 150 mM KCl, 1 mM MgCl2, pH 7.5, absence of ATP or ADP) [µM] | Kd ([3]; 250 mM NH4Ac, pH 8.8, conditions favoring the monomer, probe 0.1 µM) [µM] | Kd ([3]; HEPES buffer pH 7.5, ATP or ADP to DAPK ratios higher than two (maximal effect)) [µM] | Compound
3.98 ± 0.22 | 0.29 ± 0.011 | – | – | – | – | – | – | – | – | – | γ-[6-Aminohexyl]-ATP-Atto495
– | – | 3.4 | 5.5 | 20 | 33 | 28 | 16.5 ± 1.2 | 30.9 ± 2.8 | 1.5 ± 0.2 | 6.4 ± 0.54 | CCN(CC)c1ccc2c(-c3ccc(S(=O)(=O)NCCC(=O)N[C@@H](CCCNC(=N)N)C(=O)N[C@@H](Cc4ccc5ccccc5c4)C(=O)N[C@@H](CCCN)C(N)=O)cc3S(=O)(=O)[O-])c3ccc(=[N+](CC)CC)cc-3oc2c1 [CHPO 187-3-H11-para]

From publication PMC2994711, “Homodimerization of the Death-Associated Protein Kinase Catalytic Domain: Development of a New Small Molecule Fluorescent Reporter” (PLoS ONE, 2010)
